The subject of series [1] is Bacillus subtilis ATCC 6633. Further details: method as in PMID 35422182. The conditions noted are these: parent xanthones, previous report; cited from earlier work.
Series [2] deals with Methicillin resistant Staphylococcus aureus (MRSA). Also noted: method as in PMID 35422182. As to conditions: parent xanthones, previous report; cited from earlier work.
Series [3] relates to Bacillus cereus ATCC 11778. Also noted: method as in PMID 35422182. The conditions noted are these: parent xanthones, previous report; cited from earlier work.
For series [4], the system named is HelaS3 (human cervical carcinoma) cells. Further details: method as in PMID 35422182. The conditions noted are these: parent xanthones, previous report, read-out: Cytotoxicity (IC50, μM) HelaS3; cited from earlier work.
Series [5] concerns Vero (African green monkey kidney) cells. Further details: method as in PMID 35422182. As to conditions: parent xanthones, previous report, read-out: Cytotoxicity (IC50, μM) Vero; cited from earlier work.
Series [6] deals with A549 (human lung carcinoma) cells. Further details: method as in PMID 35422182. As to conditions: parent xanthones, previous report, read-out: Cytotoxicity (IC50, μM) A549; cited from earlier work.
The test system of series [7] is HepG2 (human hepatocellular carcinoma) cells. Also noted: method as in PMID 35422182. The conditions noted are these: parent xanthones, previous report, read-out: Cytotoxicity (IC50, μM) HepG2; cited from earlier work.
Series [8] has as its system S. aureus ATCC 25923. Further details: method as in PMID 35422182. As to conditions: parent xanthones, previous report; cited from earlier work.
Series [9] concerns HelaS3, A549, and HepG2 cancer cell lines. Put plainly: Cytotoxicity stated over the three cancer cell lines. It is filed as cell-based, human. The conditions noted are these: HelaS3, A549, HepG2 taken together; for IC50: Homo sapiens, read-out: Cytotoxicity against three cancer cell lines (IC50 values, range over lines). On the procedure:
(§1) All types of cancer and non-tumorigenic cells were purchased from ATCC. Cytotoxicity assays against human cervical carcinoma (HelaS3; ATCC CCL2-2), human hepatocellular carcinoma (HepG2; ATCC HB-8065), human lung carcinoma (A549; ATCC CCL-185), and African green monkey kidney (Vero; ATCC CCL-81) cell lines were performed by […].[44] Cells proliferation was performed using the MTT colorimetric assay,[44] as in our previous publication.[4]

Series [10] concerns Bacillus cereus ATCC 11778. Put plainly: Antibacterial microdilution MIC, B. cereus. It is filed as cell-based. As to conditions: ATCC11778, microdilution method, ATCC 11778, read-out: MIC B. cereus. As for the experimental part:
(§2) Four bacterial cultures Bacillus cereus ATCC 11778, Bacillus subtilis ATCC 6633, Staphylococcus aureus ATCC 25923, and Methicillin resistant Staphylococcus aureus (MRSA) were employed as the test organisms. Minimum inhibitory concentration (MIC) values were determined using the dilution method, as described in the M07-A9,[45] as described in our previous paper.[4,46]
(Broth dilution looks for growth in wells or tubes with falling amounts of substance.)

Series [11] has as its system HepG2 (human hepatocellular carcinoma) cells. Put plainly: In vitro cytotoxicity, HepG2. It is filed as cell-based. On the procedure:
as §1

The test system of series [12] is Bacillus subtilis ATCC 6633. Put plainly: Antibacterial microdilution MIC, B. subtilis. It is filed as cell-based. As to conditions: ATCC6633, microdilution method, ATCC 6633, read-out: MIC B. subtilis. As for the experimental part: as §2
Series [13] can be described thus: In vitro cytotoxicity, Vero normal cells. It is filed as cell-based, African green monkey. The conditions noted are these: African green monkey, Vero cells (kidney, non-tumorigenic). As for the experimental part: as §1
The test system of series [14] is Vero (African green monkey kidney) cells. Put plainly: In vitro cytotoxicity, Vero normal cells. It is filed as cell-based. On the procedure: as §1
In series [15] the test system is MRSA, S. aureus, B. subtilis, and B. cereus. Put plainly: Antibacterial activity stated over all four Gram-positive strains. It is filed as cell-based. As to conditions: for MIC: read-out: MIC against all bacterial strains tested; for fold improvement in antibacterial potency (MIC) compared to parent 1: all bacterial strains. On the procedure:
as §2

For series [16], the system named is Methicillin resistant Staphylococcus aureus (MRSA). The series is described as follows: Antibacterial microdilution MIC, MRSA. The conditions noted are these: microdilution method, read-out: MIC MRSA. It is filed as cell-based. As for the experimental part: as §2
The subject of series [17] is HelaS3 (human cervical carcinoma) cells. Put plainly: In vitro cytotoxicity, HelaS3. As to conditions: HeLa S3. It is filed as cell-based. As for the experimental part: as §1
For series [18], the system named is S. aureus ATCC 25923. The series is described as follows: Antibacterial microdilution MIC, S. aureus. It is filed as cell-based. The conditions noted are these: Staphylococcus aureus, ATCC25923; microdilution method; ATCC 25923; read-out: MIC S. aureus. As for the experimental part: as §2
Series [19] deals with A549 (human lung carcinoma) cells. The series is described as follows: In vitro cytotoxicity, A549. It is filed as cell-based. On the procedure:
as §1

[20] abbreviates: MRSA, S. aureus, B. subtilis, B. cereus taken together.

Results on nine compounds are retold here after PMC12441791, “Structural modifications of toxyloxanthone C and macluraxanthone isolated from Maclura cochinchinensis: cytotoxicity, antibacterial activity, and in silico studies” (RSC Advances, 2025).

Values after ≈ are worked out from the molar mass of the structure shown. Where two headings read alike, the source gives them in different places.

The term IC50 denotes the concentration that inhibits the measured activity by half. Take `CC1Oc2cc3oc4c(O)c(O)ccc4c(=O)c3c(O)c2C1(C)C` (stereo not drawn) [Compound 1, Toxyloxanthone C]: the “MIC B. subtilis” value in [1] was 128 µg/mL (≈ 390 µM). Further, in series [2], the “MIC MRSA” value is 128 µg/mL (≈ 390 µM). In addition, in series [3], the “MIC B. cereus” value is 128 µg/mL (≈ 390 µM). In addition, the IC50 was 13.6 ± 1.11 µM in [4], 8.52 ± 0.64 µM in [5], 21.8 ± 4.89 µM in series [6] and 20.8 ± 2.57 µM in [7]. Moreover, the “MIC S. aureus” value in series [8] is 128 µg/mL (≈ 390 µM).
For orientation: MIC means the smallest concentration in the dilution series that meets the test's criterion for growth inhibition. Regarding `CC(=O)Oc1ccc2c(=O)c3c(O)c4c(cc3oc2c1OC(C)=O)OC(C)C4(C)C` (stereo not drawn) [Compound 1a, 5,6-Diacetoxytoxyloxanthone C], the IC50 was 12.2 to 22.6 µM in series [9]; 21.1 ± 1.18 µM in [11]; greater than 100 µM in series [13]; 22.6 ± 2.02 µM in series [17]; 12.2 ± 1.08 µM in [19]. The MIC in [10], in [12], in [15] (setting [20]), in [16] and in series [18] was 4 µg/mL (≈ 9.7 µM) in each case. Also, the “Cytotoxicity (IC50, μM) Vero” value in series [14] is recorded as “without showing cytotoxicity”. Moreover, in series [15], the “fold improvement in antibacterial potency (MIC) compared to parent 1” value was found to be 32 fold.
With `CCCCC(=O)Oc1ccc2c(=O)c3c(OC(=O)CCCC)c4c(cc3oc2c1OC(=O)CCCC)OC(C)C4(C)C` (stereo not drawn) [Compound 1b, 1,5,6-Tripentanoyloxytoxyloxanthone C], the minimum inhibitory concentration (MIC) was 16 µg/mL (≈ 27.6 µM) in [10]; 8 µg/mL (≈ 13.8 µM) in series [12]; 8 to 16 µg/mL (≈ 13.8 to 27.6 µM) in series [15] (setting [20]); 8 µg/mL (≈ 13.8 µM) in series [16]; 8 µg/mL (≈ 13.8 µM) in series [18]. Moreover, the half-inhibitory concentration (IC50) is 17.2 ± 4.5 µM in [11], 5.59 ± 0.36 µM in series [13], 20.5 ± 4.92 µM in series [17] and 5.77 ± 2.14 µM in series [19]. Besides, the “Cytotoxicity (IC50, μM) Vero” value in series [14] was “strong cytotoxicity”.
For `COc1ccc2c(=O)c3c(O)c4c(cc3oc2c1OC)OC(C)C4(C)C` (stereo not drawn) [Compound 1d, 5,6-Dimethoxytoxyloxanthone C], the “Cytotoxicity against three cancer cell lines (IC50 values, range over lines)” value (“Cytotoxicity … (IC50 values, range over lines)” for short) in series [9] is “no cytotoxicity”. For the same compound, the MIC in [10], in series [12], in series [16] and in [18] was greater than 128 µg/mL throughout. The IC50 in series [11], in series [13], in [17] and in [19] was greater than 100 µM each time. For the same compound, in [15] (setting [20]), the “MIC against all bacterial strains tested” value is on record as “no antibacterial activity”.
Take `CC1Oc2c(c(O)c3c(=O)c4ccc(O)c(O)c4oc3c2Br)C1(C)C` (stereo not drawn) [Compound 1f, 4-Bromotoxyloxanthone C]: the MIC in series [10], in series [12], in series [15] (setting [20]), in [16] and in [18] was 4 µg/mL (≈ 9.82 µM) throughout. For the same compound, the half-inhibitory concentration (IC50) in series [11] came to 19.4 ± 1.52 µM; in [13], 9.52 ± 1.02 µM; in series [17], 17.4 ± 1.75 µM; in [19], 7.52 ± 0.36 µM. The “Cytotoxicity (IC50, μM) Vero” value in [14] is listed as “cytotoxic toward normal cells”. For the same compound, in series [15], the “fold improvement in antibacterial potency (MIC) compared to parent 1” value is on record as 32 fold.
For the compound `C=CC(C)(C)c1c2c(c(O)c3c(=O)c4ccc(O)c(O)c4oc13)C=CC(C)(C)O2` [Compound 2, Macluraxanthone], in series [1], the “MIC B. subtilis” value is 64 µg/mL (≈ 162 µM). Besides, the “MIC MRSA” value in series [2] was 16 µg/mL (≈ 40.6 µM). In addition, the “MIC B. cereus” value in series [3] is 64 µg/mL (≈ 162 µM). In addition, the IC50 in [4] was 1.59 ± 0.12 µM; in series [5], 4.29 ± 0.6 µM; in series [6], 6.46 ± 0.98 µM; in series [7], 5.26 ± 0.41 µM. The “MIC S. aureus” value in series [8] was greater than 128 µg/mL.
Regarding `C=CC(C)(C)c1c2c(c(O)c3c(=O)c4ccc(OC(C)=O)c(OC(C)=O)c4oc13)C=CC(C)(C)O2` [Compound 2a, 5,6-Diacetoxymacluraxanthone], the IC50 in series [9] was 15.7 to 25.6 µM; in series [11], 24.5 ± 2.98 µM; in series [13], 10.1 ± 1.67 µM; in [17], 25.6 ± 4.77 µM; in series [19] it was 15.7 ± 1.17 µM. The minimum inhibitory concentration (MIC) in series [10] is 16 µg/mL (≈ 33.4 µM); in series [12] it was 32 µg/mL (≈ 66.9 µM); in series [15] (setting [20]) it was 8 to 32 µg/mL (≈ 16.7 to 66.9 µM); in [16], 8 µg/mL (≈ 16.7 µM); in [18], 16 µg/mL (≈ 33.4 µM).
Consider `C=CC(C)(C)c1c2c(c(O)c3c(=O)c4ccc(OCC)c(OCC)c4oc13)C=CC(C)(C)O2` [Compound 2f, 5,6-Diethoxymacluraxanthone], for which the “Cytotoxicity … (IC50 values, range over lines)” value in series [9] is “no cytotoxicity”. The minimum inhibitory concentration (MIC) in [10], in series [12], in [16] and in series [18] was greater than 128 µg/mL each time. For the same compound, the 50% inhibitory concentration (IC50) in [11], in [13], in series [17] and in [19] was greater than 100 µM each time.
In the case of `C=CC(C)(C)c1c2c(c(O)c3c(=O)c4ccc(O)c(OCC)c4oc13)C=CC(C)(C)O2` [Compound 2g, 5-Ethoxymacluraxanthone], the “Cytotoxicity … (IC50 values, range over lines)” value in series [9] is “no cytotoxicity”. Moreover, the MIC in series [10], in series [12], in [16] and in [18] was greater than 128 µg/mL throughout. The IC50 in series [11], in series [13], in [17] and in series [19] was greater than 100 µM each time.
